# Source: patent publication US6825230B2, “Spiro and dispiro 1,2,4-trixolane antimalarials” (Medicines for Malaria Venture MMV, priority 2002, dated 2004)
# Read-outs that look alike come from different tables or passages of the source.
# Assays:
# [1] = test system: chloroquine-sensitive NF54 strain of P. falciparum; experiment: In vitro antimalarial semiautomated microdilution assay ([3H]-hypoxanthine incorporation), NF54 strain; assay type: cell-based, Plasmodium falciparum; settings: Plasmodium falciparum
# Method: (§1) Various OZ compounds were tested by the semiautomated microdilution assay against intraerythrocytic forms of Plasmodium falciparum derived from asynchronous stock cultures.
# (§2) Fifty percent inhibitory concentration (IC50) were estimated by Logit regression analysis.
# [2] = test system: chloroquine-resistant K1 strain of P. falciparum; experiment: In vitro antimalarial semiautomated microdilution assay ([3H]-hypoxanthine incorporation), K1 strain; assay type: cell-based, Plasmodium falciparum; settings: Plasmodium falciparum
# Method: as §1, §2
# [3] = test system: ANKA strain of P. berghei; experiment: Single dose STI in vivo screen in infected mice; set-up: species or system Plasmodium berghei; settings: for Survival (days) 10 mg/kg po: single 10 mg/kg po in 3% ethanol and 7% Tween 80; for Survival (days) 10 mg/kg po / Survival (days) 10 mg/kg SSV po / Survival (days) 10 mg/kg sc: untreated 6-7 days; for Activity (%) 10 mg/kg po: single 10 mg/kg po in 3% ethanol and 7% Tween 80 on day 1 post-infection; for Activity (%) 10 mg/kg po / Activity (%) 10 mg/kg SSV po / Activity (%) 10 mg/kg sc: percent reduction in parasitemia on day 3; for Survival (days) 10 mg/kg SSV po: single 10 mg/kg po in SSV; for Activity (%) 10 mg/kg SSV po: single 10 mg/kg po in standard suspending vehicle (SSV) on day 1 post-infection; for Survival (days) 10 mg/kg sc: single 10 mg/kg sc in 3% ethanol and 7% Tween 80; for Activity (%) 10 mg/kg sc: single 10 mg/kg sc in 3% ethanol and 7% Tween 80 on day 1 post-infection
# [4] = NF54, 72 h, read-out: IC50 (ng/ml) NF54, chloroquine-sensitive NF54 strain, 72 h incubation
# [5] = K1, 72 h, read-out: IC50 (ng/ml) K1, chloroquine-resistant K1 strain, 72 h incubation
# [6] = chloroquine-sensitive NF54 strain, 72 h incubation, read-out: IC50 (ng/ml) NF54
# [7] = chloroquine-resistant K1 strain, 72 h incubation, read-out: IC50 (ng/ml) K1
Compound,"IC50 [1, 4] [ng/mL]","IC50 [2, 5] [ng/mL]",Survival (days) 10 mg/kg po [3],Activity (%) 10 mg/kg po [3],Survival (days) 10 mg/kg SSV po [3],Activity (%) 10 mg/kg SSV po [3],Survival (days) 10 mg/kg sc [3],Activity (%) 10 mg/kg sc [3],"IC50 [1, 6] [ng/mL]","IC50 [2, 7] [ng/mL]"
"O=C(O)c1ccccc1C(=O)N1CCC2(CC1)OOC1(O2)C2CC3CC(C2)CC1C3 (centres unmarked) [OZ132, Adamantane-2-spiro-3′-8′-(2′-carboxybenzoyl)-1′,2′,4′-trioxa-8′-azaspiro[4.5]decane]",> 10,9.8,6.3 days,38%,5.7 days,0%,6.3 days,40%,,
"c1ccc2c(c1)OCCC21OOC2(O1)C1CC3CC(C1)CC2C3 (centres unmarked) [OZ134, Adamantane-2-spiro-3′-1′,2′,4′-trioxolane-5′-spiro-4″-2″, 3″-dihydro-4″H-1″-benzopyran]",1.1,0.88,6.3 days,72%,6.0 days,27%,15.3 days,99.95%,,
"O=C(O)c1ccc(C2(c3ccc(C(=O)O)cc3)OOC3(O2)C2CC4CC(C2)CC3C4)cc1 (centres unmarked) [OZ135, Adamantane-2-spiro-3′-5′,5′-bis(4′-carboxyphenyl)-1′,2′,4′-trioxolane]",> 100,> 100,5.3/5.3/5.3 days,1%,5.3/5.3/5.3 days,0%,5.3/5.3/5.3 days,0%,,
O=C1c2ccccc2C(=O)N1[C@H]1CC[C@]2(CC1)OOC1(O2)C2CC3CC(C2)CC1C3 (some centres unmarked) [OZ136],21,23,6.0/6.0/6.0 days,0/0/0%,6.0/6.0/6.0 days,0/0/0%,6.0/6.0/6.0 days,0/0/0%,,
"COC(=O)c1ccc(C2(c3ccccc3)OOC3(O2)C2CC4CC(C2)CC3C4)cc1 (centres unmarked) [OZ138, Adamantane-2-spiro-3′-5′-[4′-(methoxycarbonyl)phenyl]-5′-phenyl-1′,2′,4′-trioxolane]",19,10,5.7 days,0%,6.3 days,5%,6.3 days,7%,,
"O=C(OC[C@H]1CC[C@]2(CC1)OOC1(O2)C2CC3CC(C2)CC1C3)n1ccnc1 (stereo partly drawn) [OZ141, cis-Adamantane-2-spiro-3′-1′,2′,4′-trioxaspiro[4.5]decane-8′-methyl imidazole-1-carboxylate]",1.9,1.7,8.0 days,98%,8.0 days,97%,8.7 days,99.89%,,
"CC(C)(C)NC(=O)N1CCC2(CC1)OOC1(O2)C2CC3CC(C2)CC1C3 (centres unmarked) [OZ143, Adamantane-2-spiro-3′-8′-(t-butylaminocarbonyl)-1′,2′,4′-trioxa-8′-azaspiro[4.5]decane]",1.8,0.98,6.7 days,48%,6.7 days,44%,9.7 days,99.85%,,
"S=C(Nc1ccccc1)N1CCC2(CC1)OOC1(O2)C2CC3CC(C2)CC1C3 (centres unmarked) [OZ144, Adamantane-2-spiro-3′-8′-(phenylaminothiocarbonyl)-1′,2′,4′-trioxa-8′-azaspiro[4.5]decane]",2.1,1.4,7.3 days,99.45%,7.3 days,92%,16.7 days,99.94%,,
O=C1c2ccccc2C(=O)N1C[C@H]1CC[C@]2(CC1)OOC1(O2)C2CC3CC(C2)CC1C3 (some centres unmarked) [OZ146],,,7.0 days,62%,6.3 days,40%,9.0 days,91%,2.7,2.2
"O=C(OC1CCC2(CC1)OOC1(O2)C2CC3CC(C2)CC1C3)n1ccnc1 (centres unmarked) [OZ147, Adamantane-2-spiro-3′-1′,2′,4′-trioxaspiro[4.5]decane-8′-yl imidazole-1-carboxylate]",,,8.0 days,85%,8.0 days,71%,19.7 days,99.89%,1.8,1.1
